Converted amounts (≈) assume the structure as drawn.
Legend:
[1] = tested on: E. coli NCTC 13441 (UPEC); experiment: MIC broth microdilution; format: cell-based, Escherichia coli; details: Escherichia coli, NCTC13441
Summary of the method: (§1)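 Broth microdilution following CLSI M07-A10, two-fold serial compound dilutions spanning 0.39-200 μM final, DMSO at most 2% final, in cation-adjusted Müller-Hinton broth at 37° C., ambient air. MIC taken as lowest concentration inhibiting growth after 20-24 h incubation.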

[2] = tested on: human hepatocarcinoma cell line ATCC HB-8065 (HepG2); experiment: Human cell viability (CellTiter-Glo); format: cell-based; details: Homo sapiens; HepG2 cells, 24 h incubation, CellTiter-Glo luminescence, 0.2-100 μM; read-out: IC50 values against the HepG2 cell line
Summary of the method: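 Cytotoxicity was read as CellTiter-Glo luminescence after 24 h compound exposure at 37° C., 5% CO2. Final concentrations spanned 0.2-100 μM in two-fold steps, in 1% FBS MEM with 1% DMSO, on cells plated a day earlier at 20,000/well. IC50 came from 4-parameter logistic regression.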

[3] = tested on: Acinetobacter baumannii ATCC 17978 (AB); experiment: MIC broth microdilution; format: cell-based; details: ATCC17978
Summary of the method: as §1

[4] = tested on: Escherichia coli K12 (EC); experiment: MIC broth microdilution; format: cell-based
Summary of the method: as §1

[5] = tested on: Pseudomonas aeruginosa ATCC 33359 (PA); experiment: MIC broth microdilution; format: cell-based; details: ATCC33359
Summary of the method: as §1

[6] = tested on: Staphylococcus aureus ATCC 35556 (SA); experiment: MIC broth microdilution; format: cell-based; details: ATCC35556
Summary of the method: as §1

[7] = tested on: Klebsiella pneumoniae ATCC 10031 (KP2); experiment: MIC broth microdilution; format: cell-based; details: ATCC10031
Summary of the method: (§2)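 CLSI broth microdilution with two-fold compound series, 0.39-200 μM final, at most 2% DMSO. Strains grown in cation-adjusted Müller-Hinton broth at 37 °C, ambient air. MIC taken as lowest concentration inhibiting growth after 20-24 h.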

[8] = tested on: K. pneumoniae NCTC 13438 (KP1); experiment: MIC broth microdilution; format: cell-based, Klebsiella pneumoniae; details: Klebsiella pneumoniae, NCTC13438
Summary of the method: as §2

Structure (SMILES) | MIC [1] [µM] | IC50 [2] [µM] | MIC [3] [µM] | MIC [4] [µM] | MIC [5] [µM] | MIC [6] [µM] | MIC [7] [µM] | MIC [8] [µM]
Nc1nc(-c2ccc3c(c2)OCCO3)c(-c2cc[nH]c(=O)c2)[nH]1 [Example 18, 4-(2-Amino-4-(2,3-dihydrobenzo[b][1,4]dioxin-6-yl)-1H-imidazol-5-yl)pyridin-2(1H)-one] | 10 to 100 (≈ 3.1 to 31 µg/mL) | > 100 | > 100 | 10 to 100 (≈ 3.1 to 31 µg/mL) | > 100 | > 100 | 1 to 10 (≈ 0.31 to 3.1 µg/mL) | > 100
Cc1cc(-c2nc(N)[nH]c2-c2ccc3c(c2)N(CCO)CCO3)ccn1 [Example 90, 2-(6-(2-Amino-4-(2-methylpyridin-4-yl)-1H-imidazol-5-yl)-2,3-dihydro-4H-benzo[b][1,4]oxazin-4-yl)ethan-1-ol] | ≤ 1 | > 100 | > 100 | 1 to 10 (≈ 0.351 to 3.51 µg/mL) | > 100 | > 100 | ≤ 1 | 1 to 10 (≈ 0.351 to 3.51 µg/mL)
CNc1cc(-c2[nH]c(N)nc2-c2ccc3c(c2)NCCO3)ccn1 [Example 40, 4-(2-Amino-4-(3,4-dihydro-2H-benzo[b][1,4]oxazin-6-yl)-1H-imidazol-5-yl)-N-methylpyridin-2-amine] | ≤ 1 | > 100 | > 100 | 1 to 10 (≈ 0.322 to 3.22 µg/mL) | > 100 | > 100 | ≤ 1 | 1 to 10 (≈ 0.322 to 3.22 µg/mL)
Cc1cc(-c2[nH]c(N)nc2-c2ccc3c(c2)NCCO3)cc(C)n1 [Example 36, 4-(3,4-Dihydro-2H-benzo[b][1,4]oxazin-6-yl)-5-(2,6-dimethylpyridin-4-yl)-1H-imidazol-2-amine] | ≤ 1 | > 100 | > 100 | 1 to 10 (≈ 0.321 to 3.21 µg/mL) | > 100 | > 100 | ≤ 1 | 1 to 10 (≈ 0.321 to 3.21 µg/mL)
Nc1nc(-c2ccc3c(c2)NCCO3)c(-c2ccnc(F)c2)[nH]1 [Example 47, 4-(3,4-Dihydro-2H-benzo[b][1,4]oxazin-6-yl)-5-(2-fluoropyridin-4-yl)-1H-imidazol-2-amine] | 1 to 10 (≈ 0.311 to 3.11 µg/mL) | > 100 | > 100 | 1 to 10 (≈ 0.311 to 3.11 µg/mL) | > 100 | > 100 | ≤ 1 | 10 to 100 (≈ 3.11 to 31.1 µg/mL)
COC(=O)CCN1CCOc2ccc(-c3nc(N)[nH]c3-c3ccnc(C)c3)cc21 [Example 61, Methyl 3-(6-(2-amino-5-(2-methylpyridin-4-yl)-1H-imidazol-4-yl)-2,3-dihydro-4H-benzo[b][1,4]oxazin-4-yl)propanoate] | 1 to 10 (≈ 0.393 to 3.93 µg/mL) | > 100 | > 100 | 1 to 10 (≈ 0.393 to 3.93 µg/mL) | > 100 | > 100 | ≤ 1 | 1 to 10 (≈ 0.393 to 3.93 µg/mL)
Cc1cc(-c2sc(N)nc2-c2ccc3c(c2)OCCO3)ccn1 [Example 80, 4-(2,3-Dihydrobenzo[b][1,4]dioxin-6-yl)-5-(2-methylpyridin-4-yl)thiazol-2-amine] | > 100 | > 100 | > 100 | > 100 | > 100 | > 100 | 1 to 10 (≈ 0.325 to 3.25 µg/mL) | > 100
CNC(=O)c1nc(-c2ccnc(C)c2)c(-c2ccc3c(c2)OCCO3)[nH]1 [Example 85, 5-(2,3-Dihydrobenzo[b][1,4]dioxin-6-yl)-N-methyl-4-(2-methylpyridin-4-yl)-1H-imidazole-2-carboxamide] | > 100 | > 100 | > 100 | > 100 | > 100 | > 100 | 1 to 10 (≈ 0.35 to 3.5 µg/mL) | > 100
COc1cc(-c2[nH]c(N)nc2-c2ccnc(C)c2)ccc1F [Example 6, 5-(4-Fluoro-3-methoxyphenyl)-4-(2-methylpyridin-4-yl)-1H-imidazol-2-amine] | 1 to 10 (≈ 0.298 to 2.98 µg/mL) | > 100 | > 100 | 1 to 10 (≈ 0.298 to 2.98 µg/mL) | > 100 | > 100 | ≤ 1 | 10 to 100 (≈ 2.98 to 29.8 µg/mL)
Nc1nc(-c2ccc3c(c2)CCO3)c(-c2ccncc2)[nH]1 [Example 38, 4-(2,3-Dihydrobenzofuran-5-yl)-5-(pyridin-4-yl)-1H-imidazol-2-amine] | ≤ 1 | > 100 | > 100 | ≤ 1 | > 100 | > 100 | ≤ 1 | 1 to 10 (≈ 0.278 to 2.78 µg/mL)
Cc1cc(-c2[nH]c(N)nc2-c2ccc(OC(F)(F)F)cc2)ccn1 [Example 20, 5-(2-Methylpyridin-4-yl)-4-(4-(trifluoromethoxy)phenyl)-1H-imidazol-2-amine] | 1 to 10 (≈ 0.334 to 3.34 µg/mL) | 25 to 100 | > 100 | 1 to 10 (≈ 0.334 to 3.34 µg/mL) | > 100 | > 100 | ≤ 1 | 10 to 100 (≈ 3.34 to 33.4 µg/mL)
Cc1cc(-c2[nH]c(N)nc2-c2ccc3c(c2)NC(=O)CO3)ccn1 [Example 51, 6-(2-Amino-5-(2-methylpyridin-4-yl)-1H-imidazol-4-yl)-2H-benzo[b][1,4]oxazin-3(4H)-one] | 1 to 10 (≈ 0.321 to 3.21 µg/mL) | > 100 | > 100 | 1 to 10 (≈ 0.321 to 3.21 µg/mL) | > 100 | > 100 | ≤ 1 | 10 to 100 (≈ 3.21 to 32.1 µg/mL)
Nc1nc(-c2ccc3c(c2)NCCO3)c(-c2ccncc2)[nH]1 [Example 39, 4-(3,4-Dihydro-2H-benzo[b][1,4]oxazin-6-yl)-5-(pyridin-4-yl)-1H-imidazol-2-amine] | ≤ 1 | > 100 | > 100 | ≤ 1 | > 100 | > 100 | ≤ 1 | 10 to 100 (≈ 2.93 to 29.3 µg/mL)
COc1ccc(-c2[nH]c(N)nc2-c2ccnc(C)c2)cc1OC [Example 1, 5-(3,4-Dimethoxyphenyl)-4-(2-methylpyridin-4-yl)-1H-imidazol-2-amine] | 10 to 100 (≈ 3.1 to 31 µg/mL) | > 100 | > 100 | 10 to 100 (≈ 3.1 to 31 µg/mL) | > 100 | > 100 | ≤ 1 | > 100
Cc1cc(-c2[nH]c(=S)[nH]c2-c2ccc3c(c2)OCCO3)ccn1 [Example 81, 4-(2,3-Dihydrobenzo[b][1,4]dioxin-6-yl)-5-(2-methylpyridin-4-yl)-1,3-dihydro-2H-imidazole-2-thione] | 10 to 100 (≈ 3.25 to 32.5 µg/mL) | > 100 | > 100 | 10 to 100 (≈ 3.25 to 32.5 µg/mL) | > 100 | > 100 | ≤ 1 | > 100
Cc1cc(-c2[nH]c(N)nc2-c2ccc3nccnc3c2)ccn1 [Example 31, 5-(2-Methylpyridin-4-yl)-4-(quinoxalin-6-yl)-1H-imidazol-2-amine] | 1 to 10 (≈ 0.302 to 3.02 µg/mL) | > 100 | > 100 | 1 to 10 (≈ 0.302 to 3.02 µg/mL) | > 100 | > 100 | ≤ 1 | 10 to 100 (≈ 3.02 to 30.2 µg/mL)
Cc1cc(-c2[nH]c(CN)nc2-c2ccc3c(c2)NCCO3)ccn1 [Compound 88] | 1 to 10 (≈ 0.321 to 3.21 µg/mL) | > 100 | > 100 | 1 to 10 (≈ 0.321 to 3.21 µg/mL) | > 100 | > 100 | ≤ 1 | 10 to 100 (≈ 3.21 to 32.1 µg/mL)
Cc1cc(-c2[nH]c(N)nc2-c2ccc3c(c2F)OCCO3)ccn1 [Example 60, 4-(5-Fluoro-2,3-dihydrobenzo[b][1,4]dioxin-6-yl)-5-(2-methylpyridin-4-yl)-1H-imidazol-2-amine] | 1 to 10 (≈ 0.326 to 3.26 µg/mL) | > 100 | > 100 | 1 to 10 (≈ 0.326 to 3.26 µg/mL) | > 100 | > 100 | ≤ 1 | 10 to 100 (≈ 3.26 to 32.6 µg/mL)
Nc1cc(-c2[nH]c(N)nc2-c2ccc3c(c2)NCCO3)ccn1 [Example 42, 4-(2-Amino-4-(3,4-dihydro-2H-benzo[b][1,4]oxazin-6-yl)-1H-imidazol-5-yl)pyridin-2-amine] | 1 to 10 (≈ 0.308 to 3.08 µg/mL) | > 100 | > 100 | 1 to 10 (≈ 0.308 to 3.08 µg/mL) | > 100 | > 100 | ≤ 1 | 10 to 100 (≈ 3.08 to 30.8 µg/mL)
Cc1cc(-c2[nH]c(N)nc2-c2ccc3c(c2)NCC(=O)O3)ccn1 [Example 53, 6-(2-Amino-5-(2-methylpyridin-4-yl)-1H-imidazol-4-yl)-3,4-dihydro-2H-benzo[b][1,4]oxazin-2-one] | 1 to 10 (≈ 0.321 to 3.21 µg/mL) | > 100 | > 100 | 1 to 10 (≈ 0.321 to 3.21 µg/mL) | > 100 | > 100 | ≤ 1 | 10 to 100 (≈ 3.21 to 32.1 µg/mL)

Source: patent publication US11345694B2, “Antibacterial compounds” (DISCUVA LTD., priority 2017, dated 2022)
